# Laboratory results as given in patent US11555210B2, “Microbe having increased tolerance to phenolic fermentation inhibitors” (University of Ottawa, priority 2018, dated 2023).
# Columns and labels:
# zwf1Δ strains = test: ROS measurement by H2DCFDA fluorescence microscopy; type: cell-based, S. cerevisiae; details: 2 mM coniferyl aldehyde; ρ=0.012
# Method: For all microscopy experiments overnight cultures of wild-type yeast grown at 30° C. were re-suspended at an OD600 of 0.1 in YPD medium and allowed to reach mid-log phase prior to imaging. Measurement of ROS was performed as previously described (Kennedy et al., 2016, Sci Rep. 6, 19332). Briefly cells were incubated with 10 μM 2′,7′-dichlorodihydrofluorescein diacetate (H2DCFDA; Invitrogen cat. #D399) for 15 min in the dark. Cells were washed in sterile PBS to remove traces of the dye after which they were re-suspended in YPD medium alone, or YPD supplemented with either 2 mM coniferyl aldehyde, 10 mM ferulic acid or 50 mM 4-hydroxybenzoic acid or hydrogen peroxide for 1 hour at 30° C. […]
# Analysis of H2DCFDA fluorescence was performed using Velocity Software V4 (Perkin Elmer). Image J software was used to quantify the H2DCFDA fluorescence signal in cells as described by Schneider et al (Schneider et al., 2012, Nature Methods, 9, 671-675) with a slight modification. Briefly, background fluorescence was subtracted from the images and the total fluorescence of all the cells in the image was measured and divided by the number of cells in the image. […] The ratio of fluorescence per cell of treated cultures was divided by that of untreated cultures to eliminate background endogenous ROS production. […]
# [1] = system: Sol2-GFP, Sol3-GFP and Rpe1-GFP; test: fluorescence microscopy of GFP-tagged pentose phosphate pathway proteins; type: cell-based, S. cerevisiae; details: 2 mM coniferyl aldehyde
# Zwf1-GFP = Zwf1-GFP fluorescence microscopy; type: cell-based, S. cerevisiae
# Method: For the microscopy studies, wild type cells expressing endogenously tagged Zwf1-GFP (YKB4825) were grown to mid log in YPD, prior to being washed and resuspended in YPD medium (Untreated) or YPD medium containing 2 mM coniferyl aldehyde (CA) for 120 min at 30° C. Images (FIG. 8A) are representative of three independent experiments where a minimum of 100 cells each were imaged. Scale bar represents 10 μm.
# Zwf1 = Zwf1 protein quantification by western blot; type: cell-based, S. cerevisiae; details: 2 mM coniferyl aldehyde, 2 hours at 30° C.; ρ=0.00176
# Method: Protein quantification was carried out by western blots as follows. Overnight cultures of wild type cells were diluted in fresh YPD medium to a final OD600 of 0.1. These were grown at 30° C. until they reached the early log phase. Subsequently, coniferyl aldehyde was added to the cultures to a final concentration of 2 mM and the cultures were further incubated for 2 hours. Whole cell extracts (WCE) were obtained by centrifugation of the cells (3000 rpm for 3 min; 4° C.), washing of cell pellet with chilled sterile water and cell lysis using the Trichloroacetic acid (TCA) protocol (Kao and Osley, 2003, Methods. 31,59-66). Equal number of cells was used for the TCA lysis and equal volumes of WCE were used for the quantitative western blot analysis. […] Prior to the protein level quantification, the linear range of the target protein Zwf1 was determined by loading seven 2-fold dilutions of the WCE to obtain a standard curve of protein load versus band intensity of Zwf1. The amount of Zwf1 in the coniferyl aldehyde treated cultures and the control was quantified using the Image Lab software as previously described (Taylor and Posch, 2014, BioMed Research International. 2014, 361590). This was calculated as the ratio of the Zwf1 band intensity to the intensity of bands in the entire lane signal using the TGX Stain-Free Fast Cast (total proteins). […]
# [2] = system: Saccharomyces cerevisiae ethanol red; details: commercial Saccharomyces cerevisiae ethanol red; Adeboye et al., 2014; cited from earlier work
compound,measurement,setting,value
"COc1cc(C=CC=O)ccc1O [coniferyl aldehyde, 4-hydroxy-3-methoxycinnamaldehyde]",ROS signal in zwf1Δ compared to wild-type,zwf1Δ strains,over two-fold induction
same,"localization of Sol2-GFP, Sol3-GFP and Rpe1-GFP signal",[1],concentration of signal into punctate structures
same,Zwf1-GFP fluorescence signal/cell,"Zwf1-GFP; 2 mM CA for 120 min at 30° C. (ρ=9.69E-5), ferulic acid 10 mM",significant increase
same,Zwf1-GFP localization,"Zwf1-GFP; 2 mM coniferyl aldehyde, 2 hours",punctuate localization
same,increase in Zwf1 protein levels compared to untreated,Zwf1,1.5 fold
same,concentration at which the compound kills the yeast,[2],1 mM
